Entries after “also recorded” stand apart in the source; their conditions may differ.

Our source for the flavor and texture, flavor and observed flavor change values is patent US20200214324A1, “Masking Bitter Flavors” (Board of Supervisors of Louisiana State University and …, priority 2009, published 2020).

Holding throughout (assay type): in vivo
Test [1] is described as follows: tasting of acai ice cream with glycerine and mogroside. The source says:
(§1) Additional examples of the use of Mogroside V to alter the flavors of various consumables, and the experimental results obtained, are summarized in Table I: […]

Test [2] is described as follows: tasting of rum with mogroside. Particulars: plain + 200 ppm mogroside (plain: sharp and bitter).
From the text: as §1

Test [3] in a line: tasting of turnip greens with mogroside in oil. Particulars: plain + 100 ppm mogroside in oil (plain: bitter).
From the text: as §1

A short description of test [4]: vegetable oil with mogroside sprayed onto vegetables, tasting. Particulars: vegetable oil with 800 ppm mogroside sprayed on. An excerpt: Mogroside may also be applied to vegetables, for example as a spray or as a dipping solution. The bitter and astringent flavor notes of many vegetables are thereby reduced substantially, resulting in a smoother-tasting vegetable. Mogroside can also reduce beany notes and off-flavors in vegetables. We dispersed an aqueous or ethanol solution of mogroside into vegetable oil at a concentration of 800 ppm. The vegetable oil was then sprayed onto vegetables, either before or after cooking. […] The mogroside may be applied to vegetables from aerosols or misting solutions. It may also be used in microwaving, steaming, or boiling of vegetables, as well as other methods of cooking. […] Treating vegetables with mogroside can help to improve their acceptability.

On to mogroside, for which the flavor and texture result is “not too much flavor,; also recorded: slightly soft” in test [1] (+ 5% Acai + 5% glycerin + 200 ppm mogroside); “soft, sweet” in test [1] (+ 5% Acai + 5% glycerin + 300 ppm mogroside); “sweet, not much flavor,; also recorded: some berry, soft” in test [1] (+ 5% Acai + 5% glycerin + 400 ppm mogroside); “berry notes, slightly soft” in test [1] (+ 10% Acai + 5% glycerin + 200 ppm mogroside); “creamy” in test [1] (+ 10% Acai + 5% glycerin + 300 ppm mogroside); “sweet, jammy, creamy,; also recorded: a bit too sweet” in test [1] (+ 10% Acai + 5% glycerin + 400 ppm mogroside). Besides, the flavor and texture result is “creamy” in test [1] (+ 10% Acai + 10% glycerin + 300 ppm mogroside); “sweet, jammy, creamy,; also recorded: a bit too sweet” in test [1] (+ 10% Acai + 10% glycerin + 400 ppm mogroside); “soft and creamy, sweet,; also recorded: berry, mild; best texture” in test [1] (plain + glycerine + 300 ppm mogroside (plain + glycerine: tannic, not sweet)); “plain, gummy” in test [1] (plain ice cream + 300 ppm mogroside (only)). For the same substance, the figures for the flavor entry in test [2] and in test [3] were “sweet” and “semi-sweet; no; also recorded: beaniness”, respectively. Moreover, the observed flavor change entry was “reduction in bitterness and grassy flavor” in test [4] (artichoke hearts); “reduction in sulfur and bitter notes” in test [4] (broccoli); “more intense sweetness” in test [4] (carrots); “sweeter corn flavor” in test [4] (corn); “sweeter flavor and fewer beany notes” in test [4] (green beans); “reduction in bitterness” in test [4] (lima beans). In addition, the observed flavor change entry in test [4] (peas) was “shorter flavor profile”.
